In PMC10223608, “Structural Congeners of Izenamides Responsible for Cathepsin D Inhibition: Insights from Synthesis-Derived Elucidation” (Marine Drugs, 2023):

Columns and labels:
Human liver cathepsin D = target: T1, Human liver cathepsin D (Homo sapiens, UniProt P07339); test: Cathepsin D (CTSD) human pepsin aspartic peptidase enzymatic assay (Eurofins Panlabs); assay type: biochemical; details: for Inhibition of CTSD (%): 190 mU/mL enzyme, modified acetate buffer pH 4.0, 15 min preincubation at 37 °C, 20 μM MOCAc substrate for 10 min, spectrofluorimetric read-out, duplicate, N.A. = not active
T1 construct: tissue Eurofins Panlabs Discovery Services (ran the assay); host or cells: human liver
Method: The CTSD-inhibition assay was performed at Eurofins Panlabs Discovery Services by measuring the percentage inhibition at concentrations of 0.5 and 1.0 μM (Table 1).
Human liver cathepsin D was used for the enzymatic essay. Test compound or vehicle was preincubated with 190 mU/mL enzyme in modified acetate buffer pH 4.0 for 15 minutes at 37 °C. The reaction was initiated by addition of 20 μM MOCAc-[…]Dnp)-D-Arg NH2 for another 10-minute incubation period. Determination of the amount of MOCAc formed was read spectrofluorimetrically at 340 nm/400. Compounds were screened at 0.5 and 1.0 μM. Cathepsin-D-Human-Pepsin-Aspartic-Peptidase-Enzymatic-Assay-Panlabs (eurofinsdiscovery.com, accessed on 22 February 2022).

CTSD = details: natural izenamides; cited from earlier work
Source text: In 2018, izenamides A-C (1–3), which are linear depsipeptides, were first isolated from the marine cyanobacterium 1605-5 by Suenaga et al (Figure 1). Izenamides A (1) and B (2) contain four amino acids (Pro-O-Me, N-Me-Phe, Ala, and Ile); two α-hydroxy acids (two valic acids for 1, and one valic acid and one isoleucic acid for 2); and a γ-amino-β-hydroxy acid moiety known as statine [(3S,4S)-4-amino-3-hydroxy-6-methylheptanoic acid, Sta]. Izenamide C (3) also contains Pro-O-Me, N-Me-Phe, Ile, and valic acid; however, it contains Gly in place of Ala in 1 and 2, as well as isoleucic acid. ...

T1 sequence (P07339 65-412): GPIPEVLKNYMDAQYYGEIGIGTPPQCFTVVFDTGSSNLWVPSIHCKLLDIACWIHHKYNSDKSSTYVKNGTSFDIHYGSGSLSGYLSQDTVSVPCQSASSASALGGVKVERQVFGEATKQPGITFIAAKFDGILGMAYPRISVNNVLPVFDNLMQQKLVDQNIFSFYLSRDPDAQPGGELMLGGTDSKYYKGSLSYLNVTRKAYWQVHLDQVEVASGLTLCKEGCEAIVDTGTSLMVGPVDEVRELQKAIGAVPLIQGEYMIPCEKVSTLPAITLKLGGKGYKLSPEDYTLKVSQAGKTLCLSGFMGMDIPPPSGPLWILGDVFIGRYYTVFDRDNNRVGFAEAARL

Substance | Inhibition of CTSD (%) (Human liver cathepsin D; 0.5 μM compound) | Inhibition of CTSD (%) (Human liver cathepsin D; 1.0 μM compound) | inhibitory activities against CTSD in vitro (in words) (CTSD) | CTSD-inhibitory activity (in words) (Human liver cathepsin D; screened at 0.5 and 1.0 μM)
izenamide B [Compound 2] | 8.12 | 14.76 | moderate inhibitory activities | 
izenamide C [Compound 3] |  |  | does not show CTSD inhibition | no CTSD inhibition
18-epi-izenamide B [Compound 8] | 37.29 | 40.96 |  | 
Sta-incorporated-izenamide C [Compound 7] | 26.99 | 36.07 |  | 
izenamide A [Compound 1] | 10.13 | 15.55 | moderate inhibitory activities | 
